Test results from patent publication US5495005A, “Synthesis and pharmacological activity of a series of novel xanthone derivatives” (National Science Council, priority 1993, dated 1996).

How the values were obtained:
[1] = tested on: rabbit platelet; experiment: collagen-induced aggregation of washed rabbit platelets (turbidimetry); format: cell-based; conditions: comparison with norathyrol
Protocol: It is known that ADP, arachidonic acid, PAF and collagen treatment will lead to the aggregation of rabbit platelet. […] Using 10 μg/ml of collagen as inducer of platelet aggregation, tile replacement of the methoxy or hydroxy group on the C-3 by the 3-propylamino-2-hydroxypropoxyl group increases the inhibitory effect on platelet aggregation. The reaction mechanisms of 1,3,6,7,-tetraoxygenated xanthones and 3,4-dihydroxygenated xanthone inhibit the formation of A2 -thromboxane and the degradation of phosphoinositide, and inhibit the activity of A2 -thromboxane, respectively.
Based on the method of Teng et. al. (Ouyang, C. Biochem. Biophys. Acta. 1987, 924:375), rabbit platelets were washed with platelet-rich plasma which was adjusted with EDTA for anti-aggregation. Counted by Coulter Counter (model, ZM), the platelets were adjusted to a density of 4.5×10^8 platelets/ml by Tyrode's solution which contains 136.8 mM NaCl, 2.8 mM KCl, 1.0 mM CaCl2 and 11.2 mM glucose, and 0. 35% bovine serum albumin. Platelets were agitated at a speed of 1200 rpm to form a suspension. All xanthone derivatives tested were dissolved in DMSO. The concentration of DMSO was limited to 0.5% to prevent its interference to the aggregation reaction. The aggregation was assayed by O'Brin's turbidometer. To determine the degree of aggregation, the absorbance of platelet suspension was referred as 0% aggregation and that of the platelet […] was used for 100%. Lumiaggregometer (Chromo-Log Co. USA) was used to carry out the aggregation assay.

[2] = tested on: platelet; conditions: literature report; cited from earlier work
[3] = tested on: rat's thoracic aorta; experiment: contraction of rat's thoracic aorta induced by calcium/high potassium or norepinephrine
[4] = tested on: anesthetized rats; experiment: blood pressure and heart beat of anesthetized rats after i.v. injection; format: in vivo; conditions: for blood pressure of anesthetized rats: anesthetized rat
[5] = target: angiotension I converting enzyme; experiment: inhibition of angiotension I converting enzyme; format: biochemical; conditions: read-out: IC50 toward angiotension I converting enzyme
[6] = tested on: peripheral blood vessels; conditions: literature report; cited from earlier work
[7] = tested on: myocardiac cells; conditions: literature report; cited from earlier work
[8] = tested on: atrioventricular conduction; conditions: literature report; cited from earlier work

Chain of angiotension I converting enzyme (P12821 30-1306): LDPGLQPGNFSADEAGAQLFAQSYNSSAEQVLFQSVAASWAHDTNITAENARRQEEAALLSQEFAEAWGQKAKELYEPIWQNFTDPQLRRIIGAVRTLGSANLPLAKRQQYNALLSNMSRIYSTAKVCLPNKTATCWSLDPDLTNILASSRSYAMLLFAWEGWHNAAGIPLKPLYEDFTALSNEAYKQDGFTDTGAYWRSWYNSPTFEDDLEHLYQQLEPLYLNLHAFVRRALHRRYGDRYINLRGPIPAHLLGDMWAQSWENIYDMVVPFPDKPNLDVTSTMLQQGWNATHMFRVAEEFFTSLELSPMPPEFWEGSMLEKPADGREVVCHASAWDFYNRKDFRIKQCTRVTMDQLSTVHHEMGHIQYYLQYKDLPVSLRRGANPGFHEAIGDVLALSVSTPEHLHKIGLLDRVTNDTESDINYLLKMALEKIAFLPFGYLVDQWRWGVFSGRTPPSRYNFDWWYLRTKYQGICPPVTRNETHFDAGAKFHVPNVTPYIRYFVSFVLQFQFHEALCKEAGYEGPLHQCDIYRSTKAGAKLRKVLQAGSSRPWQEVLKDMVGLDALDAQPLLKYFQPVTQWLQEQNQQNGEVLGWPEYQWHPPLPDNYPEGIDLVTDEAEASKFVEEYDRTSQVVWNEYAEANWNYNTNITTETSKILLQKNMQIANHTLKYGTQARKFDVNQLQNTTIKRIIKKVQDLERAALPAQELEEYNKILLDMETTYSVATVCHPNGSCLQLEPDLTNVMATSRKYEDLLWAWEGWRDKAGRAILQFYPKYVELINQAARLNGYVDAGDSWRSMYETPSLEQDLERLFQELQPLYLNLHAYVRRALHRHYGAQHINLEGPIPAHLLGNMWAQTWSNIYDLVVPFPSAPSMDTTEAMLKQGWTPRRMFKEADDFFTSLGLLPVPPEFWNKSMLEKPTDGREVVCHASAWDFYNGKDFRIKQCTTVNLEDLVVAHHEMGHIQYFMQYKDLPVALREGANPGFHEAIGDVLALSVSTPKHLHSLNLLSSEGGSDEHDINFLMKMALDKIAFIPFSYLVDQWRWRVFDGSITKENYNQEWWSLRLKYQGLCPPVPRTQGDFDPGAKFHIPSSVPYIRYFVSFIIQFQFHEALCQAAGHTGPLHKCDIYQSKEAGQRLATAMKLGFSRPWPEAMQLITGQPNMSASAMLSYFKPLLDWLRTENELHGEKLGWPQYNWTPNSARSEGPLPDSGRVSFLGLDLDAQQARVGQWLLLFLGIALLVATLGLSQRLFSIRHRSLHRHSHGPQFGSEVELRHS

Question: For `O=c1c2ccccc2oc2cc(OCC(O)CNC3CCCCC3)ccc12` (stereo not drawn) [3-[3-(Cyclohexylamino)-2-hydroxypropoxy] xanthone], which “effect on inhibiting collagen-induced platelet aggregation, compared with norathyrol” value [1] is on record?
Answer: more significant effect on inhibiting collagen-induced platelet aggregation than norathyrol

Question: For `CC(=O)Oc1cc2oc3c(OC(C)=O)c(OC(C)=O)ccc3c(=O)c2cc1OC(C)=O` [3 '4 '6 '7-Tetrahydroxyxanthone acetate], which “effect on inhibiting collagen-induced platelet aggregation, compared with norathyrol” value [1] is on record?
Answer: more significant effect on inhibiting collagen-induced platelet aggregation than norathyrol

Question: Which “inhibition on platelet aggregation” value [2] does the source give for `CC(=O)Oc1cc(OC(C)=O)c2c(=O)c3cc(OC(C)=O)c(OC(C)=O)cc3oc2c1` [norathyrol acetate] here?
Answer: strong inhibition on platelet aggregation

Question: Which results are given for `O=c1c2ccccc2oc2cc(O)c(O)cc12` [2,3-dihydroxyxanthone, 2,3-Dihydroxyxanthone]?
Answer: inhibition of muscle contraction in rat's thoracic aorta induced by calcium ion at high potassium ([3]; 100 μg/ml, 1.9 mM calcium ion, 80 mM potassium ion): significantly inhibit; inhibition of phasic or tonic muscle contraction induced by norepinephrine ([3]; 100 μg/ml, 3 mM norepinephrine): significantly inhibit; blood pressure of anesthetized rats [4]: significantly lowered the blood pressure

Question: Which IC50 [5] does the source give for `O=c1c2cc(O)c(O)cc2oc2c(O)c(O)ccc12` [3,4,6,7-tetrahydroxyxanthone, 3,4,6,7-Tetrahydroxyxanthone] here?
Answer: 35.4 µM

Question: And the “blood pressure of anesthetized rats” value [4]?
Answer: reducing the blood pressure

Question: For tripteroside acetate, which “inhibition on platelet aggregation” value [2] is on record?
Answer: strong inhibition on platelet aggregation

Question: With `CCCNCC(O)COc1ccc2c(=O)c3ccccc3oc2c1` (stereo not drawn) [3 [3-(propylamino)-2-hydroxypropoxy]xanthone] as the molecule, how does the “heart beat of the anesthetized rat” value [4] read?
Answer: slow down the heart beat

Question: And the “blood pressure of anesthetized rats” value [4]?
Answer: significantly reduce the blood pressure

Question: For `CC(=O)Oc1cc2oc3ccccc3c(=O)c2cc1OC(C)=O` [2,3-dihydroxyxanthone diacetate, 2,3-Dihydroxyxanthone diacetate], which “effect on inhibiting collagen-induced platelet aggregation, compared with norathyrol” value [1] is on record?
Answer: more significant effect on inhibiting collagen-induced platelet aggregation than norathyrol

Question: Which “relaxation of peripheral blood vessels” value [6] does the source give for `O=c1c2cc(O)c(O)cc2oc2cc(O)cc(O)c12` [norathyriol] here?
Answer: strongly relax the peripheral blood vessels

Question: And the “inhibition of calcium influx in myocardiac cells” value [7]?
Answer: inhibit the calcium influx

Question: What about the “atrioventricular conduction of a rabbit” value [8] of the same molecule?
Answer: significantly depress the atrioventricular conduction

Question: What does the source list for `CC(C)NCC(O)COc1ccc2c(=O)c3ccccc3oc2c1` (stereo not drawn) [3[3-(Isopropylamino)-2-hydroxypropoxyl)] xanthone]?
Answer: inhibition of contraction of rat's thoracic aorta induced by high potassium ([3]; 10^-4 M, potassium ion 100 mM): significantly inhibit the contraction; heart beat of the anesthetized rat [4]: slow down the heart beat; blood pressure of anesthetized rats [4]: significantly reduce the blood pressure
